Among the data in PubChem BioAssay (NCI) are TGI and GI50 values, retold here.

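Briefly, cells in 96-well plates were exposed to five compound concentrations for 48 h, and endpoints were estimated by linear interpolation. GI50 marks 50% less growth. Definition used: TGI = concentration required for complete inhibition of growth.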

Among the test systems are IGROV1 ovarian; MALME-3M melanoma; MOLT-4 leukemia; RPMI-8226 leukemia; RXF 393 renal; SN12C renal; SR leukemia; SW-620 colon; U251 CNS; UO-31 renal.
Holding throughout (test): DTP human tumour cell line panel, 48 h

By TGI is commonly meant the concentration at which net growth stops. Read a high TGI as less potent growth arrest. Regarding `CC(=O)OC1C/C(C)=C/[C@H](O)CC(C)/C=C/[C@@]2(C)CCC(C(C)(C)O)C12` (stereo partly specified), the concentration for total growth inhibition (TGI) with IGROV1 ovarian, in the assay with MALME-3M melanoma, with MOLT-4 leukemia, in the assay on RPMI-8226 leukemia, with RXF 393 renal and with SN12C renal was greater than 100 µM in each case. Further, the TGI in the assay on SR leukemia, in the assay on SW-620 colon, with U251 CNS and in the assay with UO-31 renal was greater than 100 µM each time.
One may read the GI50 as the concentration at which growth is held to half of that of the control. Regarding `CCN1CCN(c2nc(C)cc(N(CCCNc3ccnc4cc(Cl)ccc34)Cc3ccco3)n2)CC1`, the GI50 was 3.38 µM in the assay with IGROV1 ovarian; 1.89 µM in the assay on MALME-3M melanoma; 3.14 µM in the assay on MOLT-4 leukemia; 2.31 µM in the assay on RPMI-8226 leukemia; 1.98 µM in the assay with RXF 393 renal; 5.55 µM with SN12C renal. The GI50 in the assay with SR leukemia is 2.08 µM; in the assay with SW-620 colon, 3.12 µM; in the assay with U251 CNS, 2.41 µM; with UO-31 renal, 1.83 µM. For the same molecule, the TGI in the assay on IGROV1 ovarian came to 15.4 µM; with MALME-3M melanoma, 3.67 µM; in the assay on MOLT-4 leukemia it was 16.8 µM; in the assay with RPMI-8226 leukemia, 5.77 µM; in the assay on RXF 393 renal it was 4.23 µM; in the assay on SN12C renal it was 19.5 µM. The TGI with SR leukemia is 5.73 µM; with SW-620 colon, 13 µM; in the assay on U251 CNS it was 6.26 µM; with UO-31 renal it was 4.3 µM.
On to `NC(=O)C12CCC1C1CCCCC12N1CCOCC1` (stereo unspecified), for which the TGI with IGROV1 ovarian, in the assay with MALME-3M melanoma, with MOLT-4 leukemia, with RPMI-8226 leukemia, in the assay on RXF 393 renal and in the assay with SN12C renal was greater than 100 µM throughout. Also, the TGI in the assay with SR leukemia, in the assay with SW-620 colon, with U251 CNS and in the assay with UO-31 renal was greater than 100 µM throughout.
On to `O=C1C(Cl)=C(Nc2ccc3c(c2NC2=C(Cl)C(=O)c4ccccc4C2=O)C(=O)c2ccccc2C3=O)C(=O)c2ccccc21`, for which the GI50 with IGROV1 ovarian was 1.62 µM; in the assay with MALME-3M melanoma it was 0.505 µM; in the assay with MOLT-4 leukemia it was 3.25 µM; in the assay on RPMI-8226 leukemia it was 1.66 µM; with RXF 393 renal, 2.97 µM; with SN12C renal, 1.73 µM. Moreover, the GI50 was 1.42 µM in the assay with SR leukemia, 2.93 µM with SW-620 colon, 2.58 µM with U251 CNS and 1.75 µM in the assay with UO-31 renal. Moreover, the TGI worked out at 4.25 µM with IGROV1 ovarian; 1.72 µM in the assay with MALME-3M melanoma; 17.5 µM in the assay on MOLT-4 leukemia; 9.37 µM in the assay on RPMI-8226 leukemia; 9.79 µM in the assay with RXF 393 renal; 4.46 µM in the assay on SN12C renal. Further, the TGI is greater than 100 µM in the assay with SR leukemia, 10.6 µM with SW-620 colon, 9.38 µM in the assay on U251 CNS and 9.01 µM with UO-31 renal.
In the case of `COc1cc(C(=C2SCCS2)c2nccc3cc(OC)c(OC)cc23)c([N+](=O)[O-])cc1OC`, the TGI in the assay on IGROV1 ovarian, in the assay on MALME-3M melanoma, in the assay on MOLT-4 leukemia, with RPMI-8226 leukemia, in the assay on RXF 393 renal and with SN12C renal was greater than 100 µM each time. Besides, the TGI with SR leukemia, in the assay with SW-620 colon, in the assay on U251 CNS and in the assay with UO-31 renal was greater than 100 µM each time.
Regarding `O=c1cc(-c2ccc[nH]2)[nH]c2cc3c(cc12)OCO3`, the TGI was greater than 100 µM with IGROV1 ovarian; greater than 100 µM in the assay with MALME-3M melanoma; greater than 100 µM with MOLT-4 leukemia; greater than 100 µM in the assay with RPMI-8226 leukemia; 47 µM in the assay with RXF 393 renal; greater than 100 µM in the assay on SN12C renal. In addition, the TGI in the assay on SR leukemia, in the assay on SW-620 colon, in the assay on U251 CNS and with UO-31 renal was greater than 100 µM in each case. The GI50 in the assay on RXF 393 renal is 15.9 µM.
With `CCN1CCN(c2cc(C)nc(NCc3cc(Nc4ccnc5cc(Cl)ccc45)ccc3F)n2)CC1`, the GI50 is 3.31 µM with IGROV1 ovarian; 1.95 µM in the assay with MALME-3M melanoma; 2.34 µM in the assay on MOLT-4 leukemia; 2.13 µM in the assay with RPMI-8226 leukemia; 1.86 µM with RXF 393 renal; 4.48 µM with SN12C renal. Also, the GI50 with SR leukemia was 2.14 µM; in the assay with SW-620 colon it was 2.32 µM; with U251 CNS, 3.28 µM; in the assay with UO-31 renal, 1.61 µM. The TGI in the assay on IGROV1 ovarian is 34.1 µM; in the assay with MALME-3M melanoma, 3.91 µM; in the assay on MOLT-4 leukemia it was greater than 100 µM; in the assay on RPMI-8226 leukemia it was 8.72 µM; in the assay on RXF 393 renal it was 4.19 µM; with SN12C renal, 27 µM. The TGI in the assay on SR leukemia worked out at 9.3 µM; with SW-620 colon it was 15.1 µM; with U251 CNS, 12.6 µM; in the assay on UO-31 renal, 3.89 µM.
On to `COc1cc2c(cc1-c1c(C)noc1C)ncc1[nH]c(=O)n([C@H](C)c3ccccn3)c12`, for which the GI50 is 0.765 µM with IGROV1 ovarian; 1.05 µM in the assay on MALME-3M melanoma; 4.08 µM in the assay with MOLT-4 leukemia; 0.124 µM with RPMI-8226 leukemia; 3.3 µM with RXF 393 renal; 4.48 µM in the assay with SN12C renal. Further, the GI50 was 0.0756 µM with SR leukemia, 28.1 µM in the assay with SW-620 colon, 8.82 µM in the assay with U251 CNS and 0.119 µM in the assay on UO-31 renal. Besides, the TGI in the assay on IGROV1 ovarian is greater than 34.2 µM; with MALME-3M melanoma, 76.2 µM; in the assay on MOLT-4 leukemia it was 99.3 µM; in the assay on RPMI-8226 leukemia it was 3.54 µM; with RXF 393 renal it was greater than 32.1 µM; in the assay with SN12C renal, greater than 100 µM. The TGI was greater than 100 µM in the assay on SR leukemia, greater than 100 µM in the assay with SW-620 colon, greater than 100 µM with U251 CNS and greater than 57.6 µM with UO-31 renal.
`COc1cccc2cc(N(C)c3nc(C)nc4ccsc34)ccc12`: the GI50 with IGROV1 ovarian is less than 0.01 µM; with MALME-3M melanoma it was less than 0.0116 µM; in the assay on MOLT-4 leukemia it was less than 0.01 µM; in the assay with RPMI-8226 leukemia it was less than 0.01 µM; in the assay with RXF 393 renal, less than 0.01 µM; in the assay with SN12C renal, less than 0.01 µM. Moreover, the GI50 in the assay on SR leukemia, in the assay on SW-620 colon, in the assay with U251 CNS and in the assay on UO-31 renal was less than 0.01 µM in each case. Besides, the TGI with IGROV1 ovarian is 14.5 µM; with MALME-3M melanoma it was 18 µM; with MOLT-4 leukemia, 29.7 µM; in the assay with RPMI-8226 leukemia it was 6.02 µM; in the assay on RXF 393 renal it was 16.4 µM; in the assay with SN12C renal, 15 µM. The TGI in the assay on SR leukemia is 26.8 µM; in the assay on SW-620 colon it was 16.6 µM; in the assay with U251 CNS it was 15.1 µM; with UO-31 renal it was 12.5 µM.
